Laboratory results as given in paper PMC5632533, “Mechanisms of action and in vivo antibacterial efficacy assessment of five novel hybrid peptides derived from Indolicidin and Ranalexin against Streptococcus pneumoniae” (PeerJ, 2017).

Test system: S. pneumoniae (highly virulent strain)
Test: In vivo antipneumococcal activity, pneumococcal bacteremia (lethal systemic infection) model
Design: species or system mice
Details: for survival of infected mice up to seven days post-infection: 1.5 × 10^2 CFU/mouse IP, 10 mice; for survival of infected mice, treatment via SC and IN routes: up to seven days post-infection
Procedure: Two pneumococcal infection models developed previously in our lab ([Le et al., 2015]) were used to assess the therapeutic efficacy of peptides in vivo. The systemic infection model was used to mimic pneumococcal bacteremia in humans and the pneumococcal pneumonia model was used to mimic pneumococcal pneumonia in humans. A highly virulent strain was used in both the models. The bacterial isolate was grown overnight on Columbia agar with 5% sheep blood at 37 °C under 5% CO2. The bacterial suspension was adjusted to OD625 0.08-0.1 (1 ∼ 2 × 10^8 CFU/ml). Mice tested for lethal systemic infection were inoculated with 1.5 × 10^2 CFU/mouse (100 μl) via IP route. Mice used to assess the Pneumococcal pneumonia model were inoculated with pneumococcal cells of 5 × 10^3 CFU/mouse (50 μl) via the intrathoracic route.
After 1 hr of inoculation, Mice receiving treatment were randomized and divided into six groups. RN7-IN10 and RN7-IN8 were tested at three different doses for each (5 mg/kg, 10 mg/kg and 20 mg/kg) using a group of 10 mice. Graded doses of ceftriaxone (5 mg/kg, 10 mg/kg, […], 40 mg/kg and 80 mg/kg) were also tested to assess the in vivo antibacterial activity of this antibiotic. Only mice injected with PBS were served as uninfected control. Mice injected with bacterial inoculum were used as untreated control group and given sterile distilled water only. Survival of mice was documented for seven days or until death. After seven days, the experiment was ended, the blood and homogenates of the five major organs (kidney, brain, spleen, liver and lung) of the surviving mice were plated on Columbia agar with 5% sheep blood, to detect the presence of pneumococcal cells. […]

[1] = treatment IP 5 mg/kg (peptides at 1 h, 12 h, 24 h post-infection)
[2] = treatment IP 10 mg/kg (peptides at 1 h, 12 h, 24 h post-infection)
[3] = treatment IP 20 mg/kg (peptides at 1 h, 12 h, 24 h post-infection)

FLGGLIKWKWPWWPWRR-NH2 [RN7-IN10, hybrid peptide of ranalexin (residues 1-7) and indolicidin (residues 4-13)]
survival of infected mice up to seven days post-infection [1]: failed to treat any of the infected mice
survival of infected mice up to seven days post-infection [2]: 10%
survival of infected mice up to seven days post-infection [3]: 30%
survival of infected mice, treatment via SC and IN routes: none of the mice survived

FLGGLIKWPWWPWRR-NH2 [RN7-IN8, hybrid peptide of ranalexin (residues 1-7) and indolicidin (residues 6-13)]
survival of infected mice up to seven days post-infection [1]: failed to treat any of the infected mice
survival of infected mice up to seven days post-infection [2]: 30%
survival of infected mice up to seven days post-infection [3]: 50%
survival of infected mice, treatment via SC and IN routes: none of the mice survived
